{"source": "patent US12594262B2", "about": "“CAI nanoemulsions” (ForwardVue Pharma, Inc., priority 2019, dated 2026)", "key": {"[1]": {"settings": "cited from earlier work"}, "[2]": {"settings": "cited from earlier work", "remark": "listed apart in the source"}, "[3]": {"experiment": "Stability of CAI to autoclave sterilization, RP-HPLC analysis with UV detection", "type": "physicochemical", "settings": "autoclaving, for instance 121° C. for about 30 minutes", "procedure": "Stable sterile formulations can then be prepared by autoclaving for sufficient time at temperatures suitable for effectively killing the microorganisms that may be present in the formulation, for instance, 121° C. for about 30 minutes."}, "[4]": {"settings": "cited from earlier work", "remark": "listed apart in the source"}, "[5]": {"settings": "humans, single 5 mg peribulbar injection; cited from earlier work"}}}
{"smiles": "NC(=O)c1nnn(Cc2cc(Cl)c(C(=O)c3ccc(Cl)cc3)c(Cl)c2)c1N", "note": "[CAI]", "values": [{"measurement": "physiological tissue concentrations", "setting": "[1]", "value": "1-10 μM"}, {"measurement": "plasma concentrations associated with unacceptable toxicity", "setting": "[2]", "value": "above 100 micromolar"}, {"measurement": "decomposition of CAI or formation of new impurities after sterilization", "setting": "[3]", "value": "no decomposition of CAI or formation of new impurities could be detected"}, {"measurement": "toxic effects observed in clinical studies", "setting": "[4]; doses required to achieve circulating levels projected for inhibition of pathological neovascularization", "value": "cerebellar ataxia, peripheral neuropathy and exacerbation of depression"}, {"measurement": "serious side effect of clinical use", "setting": "[4]; systemic administration, two cases described (Berlin et al. 2002)", "value": "loss of vision"}]}
{"smiles": "C[C@@H]1C[C@H]2[C@@H]3CCC4=CC(=O)C=C[C@]4(C)[C@@]3(F)[C@@H](O)C[C@]2(C)[C@@]1(O)C(=O)CO", "note": "[Dexamethasone]", "values": [{"measurement": "concentration detected in the vitreous cavity", "setting": "[5]", "value": 13, "unit": "ng/mL"}]}
